For assay [1], the target named is Disintegrin and metalloproteinase domain-containing protein 17 (Homo sapiens, UniProt P78536). As to the kind of experiment: Inhibition of human TACE catalytic domain expressed in CHO cells by FRET assay. In kind it is cell-based.
The target of assay [2] is 72 kDa type IV collagenase (Homo sapiens, UniProt P08253). As to the kind of experiment: inhibition of human recombinant MMP2 catalytic domain.
The next assay concerns the target Collagenase 3 (Homo sapiens, UniProt P45452). As to the kind of experiment: inhibition of human recombinant MMP13 catalytic domain.
Assay [3] is filed under the species Homo sapiens. The assay can be described thus: Selectivity ratio of IC50 for human recombinant MMP2 catalytic domain to IC50 for human TACE catalytic domain.
Assay [4] is filed under the species Homo sapiens. As to the kind of experiment: Selectivity ratio of IC50 for human recombinant MMP13 catalytic domain to IC50 for human TACE catalytic domain.
The next assay has as its system RAW264.7. The assay can be described thus: Inhibition of LPS-induced TNFalpha production in mouse RAW264.7 cells preincubated for 1 hrs before LPS challenge measured after 4 hrs by ELISA. The class given is functional, cell-based. Background: ELISA stands for enzyme-linked immunosorbent assay.
A further assay has as its system Blood. The assay can be described thus: Inhibition of LPS-induced TNFalpha production in human whole blood preincubated for 1 hrs before LPS challenge measured after 4 hrs by ELISA. The class given is functional, tissue-based.
Assay [5] is described as follows: Selectivity for TACE over MMP13.
Assay [6] concerns the target Matrix metalloproteinase-9 (Homo sapiens, UniProt P14780). As to the kind of experiment: inhibition of human recombinant MMP9 catalytic domain.
Assay [7] can be described thus: Selectivity for TACE over MMP1.
The nature of assay [8]: Selectivity for TACE over MMP2.
Assay [9] in a line: Selectivity for TACE over MMP9.
The nature of assay [10]: Selectivity for TACE over MMP14.

Chain of 72 kDa type IV collagenase (P08253 whole entry, the tested form may be a part): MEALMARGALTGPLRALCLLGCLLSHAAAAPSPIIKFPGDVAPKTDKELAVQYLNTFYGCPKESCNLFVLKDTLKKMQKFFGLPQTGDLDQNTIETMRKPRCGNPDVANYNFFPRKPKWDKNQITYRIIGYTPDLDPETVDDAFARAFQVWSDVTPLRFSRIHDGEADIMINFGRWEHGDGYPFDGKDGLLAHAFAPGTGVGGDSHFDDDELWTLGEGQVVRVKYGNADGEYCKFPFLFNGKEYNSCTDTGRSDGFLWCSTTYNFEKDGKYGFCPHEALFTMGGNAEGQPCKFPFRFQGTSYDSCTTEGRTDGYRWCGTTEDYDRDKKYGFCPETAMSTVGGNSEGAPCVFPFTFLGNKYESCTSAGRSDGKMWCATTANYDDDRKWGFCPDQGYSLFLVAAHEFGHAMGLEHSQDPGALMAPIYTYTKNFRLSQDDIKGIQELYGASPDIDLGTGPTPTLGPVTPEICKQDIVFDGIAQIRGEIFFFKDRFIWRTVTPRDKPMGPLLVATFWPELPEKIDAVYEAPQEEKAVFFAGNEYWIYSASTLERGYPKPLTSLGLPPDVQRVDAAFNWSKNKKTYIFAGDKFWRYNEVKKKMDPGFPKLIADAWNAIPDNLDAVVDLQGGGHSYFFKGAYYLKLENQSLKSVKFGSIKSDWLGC
Chain of Disintegrin and metalloproteinase domain-containing protein 17 (P78536 whole entry, the tested form may be a part): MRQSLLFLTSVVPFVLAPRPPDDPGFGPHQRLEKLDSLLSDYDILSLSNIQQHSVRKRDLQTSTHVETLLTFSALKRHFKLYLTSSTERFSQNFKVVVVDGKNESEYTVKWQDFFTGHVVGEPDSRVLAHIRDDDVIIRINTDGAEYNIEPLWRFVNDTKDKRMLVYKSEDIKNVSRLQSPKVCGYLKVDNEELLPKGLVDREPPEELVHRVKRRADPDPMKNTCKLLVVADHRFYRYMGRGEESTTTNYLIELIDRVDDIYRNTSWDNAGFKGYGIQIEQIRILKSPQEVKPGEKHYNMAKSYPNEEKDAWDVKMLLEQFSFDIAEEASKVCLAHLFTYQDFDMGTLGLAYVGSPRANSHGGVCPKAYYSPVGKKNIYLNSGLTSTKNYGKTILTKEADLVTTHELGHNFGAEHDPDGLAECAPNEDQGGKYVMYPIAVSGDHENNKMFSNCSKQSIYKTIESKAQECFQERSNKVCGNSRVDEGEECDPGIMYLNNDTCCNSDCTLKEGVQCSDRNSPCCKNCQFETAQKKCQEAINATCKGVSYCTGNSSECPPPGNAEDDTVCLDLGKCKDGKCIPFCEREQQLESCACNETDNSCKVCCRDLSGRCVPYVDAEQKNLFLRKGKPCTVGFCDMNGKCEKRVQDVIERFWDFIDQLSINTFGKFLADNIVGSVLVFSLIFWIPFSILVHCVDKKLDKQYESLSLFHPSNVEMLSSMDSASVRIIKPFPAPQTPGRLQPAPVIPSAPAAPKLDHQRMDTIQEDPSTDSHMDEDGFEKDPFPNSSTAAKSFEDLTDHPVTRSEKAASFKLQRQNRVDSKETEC
Chain of Matrix metalloproteinase-9 (P14780 whole entry, the tested form may be a part): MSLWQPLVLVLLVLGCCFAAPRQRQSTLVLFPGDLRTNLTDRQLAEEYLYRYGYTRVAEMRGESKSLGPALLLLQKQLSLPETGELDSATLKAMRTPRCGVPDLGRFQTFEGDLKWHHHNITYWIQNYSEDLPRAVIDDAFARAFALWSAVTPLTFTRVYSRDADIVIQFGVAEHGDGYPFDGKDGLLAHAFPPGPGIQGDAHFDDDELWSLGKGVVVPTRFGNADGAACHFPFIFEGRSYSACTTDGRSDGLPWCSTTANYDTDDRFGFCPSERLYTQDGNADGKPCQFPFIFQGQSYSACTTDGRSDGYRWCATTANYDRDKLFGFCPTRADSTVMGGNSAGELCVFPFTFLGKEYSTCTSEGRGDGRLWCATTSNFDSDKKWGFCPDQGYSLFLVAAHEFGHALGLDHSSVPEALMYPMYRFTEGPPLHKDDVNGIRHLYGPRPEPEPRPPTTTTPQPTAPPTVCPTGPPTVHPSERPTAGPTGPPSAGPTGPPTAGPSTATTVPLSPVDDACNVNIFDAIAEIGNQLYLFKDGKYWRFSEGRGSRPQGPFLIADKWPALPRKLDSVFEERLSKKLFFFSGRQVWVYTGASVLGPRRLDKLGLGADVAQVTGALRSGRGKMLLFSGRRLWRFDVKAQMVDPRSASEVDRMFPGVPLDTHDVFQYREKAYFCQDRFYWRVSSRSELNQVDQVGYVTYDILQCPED

The IC50 is the midpoint of a concentration-inhibition curve. As for `Cc1cc(COc2ccc(S(=O)(=O)C3(C(=O)NO)CCN(S(C)(=O)=O)CC3)cc2)c2ccccc2n1`, the concentration for half-maximal inhibition (IC50) in [1] was determined as 1.2 nM; in [2], 1740 nM; on Collagenase 3, 393 nM; in the assay with RAW264.7 it was 345 nM; in the assay on Blood, 2800 nM. Also, the Ratio IC50 in the assay filed under Homo sapiens [3] and in the assay filed under Homo sapiens [4] was > 90 in each case.
As to `CC#CCOc1ccc(S(=O)(=O)C2(C(=O)NO)CCN(C(=O)c3ccccc3)CC2)cc1`, in the assay listed under Homo sapiens [4], the Ratio IC50 was < 10.
As for `CC#CCOc1ccc(S(=O)(=O)C2(C(=O)NO)CCN(C(C)=O)CC2)cc1`, in the assay filed under Homo sapiens [4], the Ratio IC50 is < 10. Moreover, in assay [5], the Selectivity ratio was < 5.
For the molecule `Cc1cc(COc2ccc(S(=O)(=O)C3(C(=O)NO)CCN(C=O)CC3)cc2)c2ccccc2n1`, the concentration for half-maximal inhibition (IC50) in assay [1] was 2 nM; in assay [2], 1400 nM; at Collagenase 3, 440 nM; in assay [6] it was > 12000 nM; in the assay on RAW264.7, 68 nM; in the assay with Blood, 1300 nM. In addition, the Ratio IC50 in the assay listed under Homo sapiens [3] and in the assay listed under Homo sapiens [4] was > 90 each time.
Turning to `CC#CCOc1ccc(S(=O)(=O)C2(C(=O)NO)CCNCC2)cc1`, the Ratio IC50 in the assay listed under Homo sapiens [4] is < 10.
Take `CC#CCOc1ccc(S(=O)(=O)CC2(C(=O)NO)CCNCC2)cc1`: the IC50 in assay [1] worked out at 1 nM; in assay [2], 1590 nM; on Collagenase 3, 1900 nM. For the same molecule, the Ratio IC50 in the assay filed under Homo sapiens [3] and in the assay filed under Homo sapiens [4] was > 1000 each time.
Regarding `Cc1cc(COc2ccc(S(=O)(=O)C3(C(=O)NO)CCN(S(=O)(=O)C(C)C)CC3)cc2)c2ccccc2n1`, the IC50 is 10 nM in assay [1]; 2140 nM in assay [2]; 926 nM at Collagenase 3; > 1000 nM in the assay on RAW264.7; 14000 nM with Blood. Also, the Ratio IC50 in the assay filed under Homo sapiens [3] and in the assay listed under Homo sapiens [4] was > 90 throughout.
As for `CC#CCOc1ccc(S(=O)(=O)CC2(C(=O)NO)CCN(C(=O)OC(C)(C)C)CC2)cc1`, the IC50 stood at 620 nM in the assay on RAW264.7 and 14000 nM in the assay on Blood.
Take `Cc1cc(COc2ccc(S(=O)(=O)C3(C(=O)NO)CCN(C(=O)c4ccccc4)CC3)cc2)c2ccccc2n1`: the half-inhibitory concentration (IC50) was 1 nM in [1]; 516 nM in assay [2]; 204 nM on Collagenase 3; > 1000 nM with RAW264.7; 28000 nM in the assay on Blood. Also, the Ratio IC50 in the assay filed under Homo sapiens [3] and in the assay filed under Homo sapiens [4] was > 90 throughout.
With `CC#CCOc1ccc(S(=O)(=O)CC2(C(=O)NO)CCN(C(=O)c3ccccc3)CC2)cc1`, the IC50 on Collagenase 3 stood at 59 nM; with RAW264.7, 400 nM; with Blood, 2500 nM.
In the case of `Cc1cc(COc2ccc(S(=O)(=O)C3(C(=O)NO)CCN(C(=O)c4ccncc4)CC3)cc2)c2ccccc2n1`, the IC50 stood at 2 nM in [1]; 1090 nM in assay [2]; 349 nM on Collagenase 3; 230 nM with RAW264.7; 1900 nM in the assay on Blood. For the same molecule, the Ratio IC50 in the assay filed under Homo sapiens [3] and in the assay listed under Homo sapiens [4] was > 90 each time.
For the molecule `CC(=O)N1CCC(C(=O)NO)(S(=O)(=O)c2ccc(OCc3cc(C)nc4ccccc34)cc2)CC1`, the concentration for half-maximal inhibition (IC50) was 1 nM in assay [1]; 6960 nM in [2]; 1340 nM on Collagenase 3; 385 nM in the assay on RAW264.7; 1500 nM with Blood. Besides, the Ratio IC50 in the assay filed under Homo sapiens [3] and in the assay listed under Homo sapiens [4] was > 90 in each case.
Regarding `Cc1cc(COc2ccc(S(=O)(=O)C3(C(=O)NO)CCN(C(=O)C(C)C)CC3)cc2)c2ccccc2n1`, the IC50 was 2 nM in assay [1]; 1240 nM in [2]; 415 nM at Collagenase 3; > 1000 nM in the assay with RAW264.7; 14000 nM in the assay with Blood. Also, the Ratio IC50 in the assay listed under Homo sapiens [3] and in the assay listed under Homo sapiens [4] was > 90 in each case.
For the molecule `CCN(CC)C(=O)N1CCC(C(=O)NO)(S(=O)(=O)c2ccc(OCc3cc(C)nc4ccccc34)cc2)CC1`, the IC50 was 3 nM in assay [1]; 96 nM in assay [2]; 57 nM on Collagenase 3; > 1000 nM in the assay with RAW264.7; > 50000 nM in the assay on Blood.
Turning to `Cc1cc(COc2ccc(S(=O)(=O)C3(C(=O)NO)CCNCC3)cc2)c2ccccc2n1`, the half-inhibitory concentration (IC50) is 33 nM in [1]; > 15000 nM in assay [2]; 8620 nM on Collagenase 3; > 12000 nM in assay [6]; 334 nM in the assay on RAW264.7; 2400 nM with Blood. In addition, the Ratio IC50 in the assay filed under Homo sapiens [3] and in the assay filed under Homo sapiens [4] was > 90 in each case.
As for `Cc1cc(COc2ccc(S(=O)(=O)C3(C(=O)NO)CCN(C(=O)OC(C)(C)C)CC3)cc2)c2ccccc2n1`, the IC50 is < 1 nM in [1]; 2670 nM in assay [2]; 1110 nM on Collagenase 3; > 1000 nM with RAW264.7; > 50000 nM in the assay with Blood. The Ratio IC50 in the assay listed under Homo sapiens [3] and in the assay filed under Homo sapiens [4] was > 90 throughout.
`CC#CCOc1ccc(S(=O)(=O)C2(C(=O)NO)CCN(Cc3ccc(Cl)c(Cl)c3)CC2)cc1`: the concentration for half-maximal inhibition (IC50) turned out to be 149 nM in assay [1] and 72 nM at Collagenase 3. Further, the Ratio IC50 in the assay filed under Homo sapiens [4] was < 10.
As to `Cc1cc(COc2ccc(S(=O)(=O)C3(C(=O)NO)CCN(Cc4ccncc4)CC3)cc2)c2ccccc2n1`, the IC50 is 9 nM in [1]; 855 nM in assay [2]; 266 nM on Collagenase 3; 378 nM with RAW264.7; 11000 nM with Blood.
In the case of `CC#CCOc1ccc(S(=O)(=O)CC2(C(=O)NO)CCN(C(C)=O)CC2)cc1`, the IC50 in [1] worked out at 2 nM; with RAW264.7, 490 nM; in the assay on Blood, 8700 nM. Further, the Selectivity ratio in [7], in [8], in assay [9], in [5] and in assay [10] was > 75 each time.
`Cc1cc(COc2ccc(S(=O)(=O)C3(C(=O)NO)CCN(C)CC3)cc2)c2ccccc2n1`: the half-inhibitory concentration (IC50) came out at 11 nM in assay [1]; 15100 nM in [2]; 1450 nM on Collagenase 3; 125 nM with RAW264.7; 2400 nM with Blood. Further, the Ratio IC50 in the assay listed under Homo sapiens [3] and in the assay filed under Homo sapiens [4] was > 90 each time.
For the molecule `CC#CCOc1ccc(S(=O)(=O)C2(C(=O)NO)CCN(C(=O)OC(C)(C)C)CC2)cc1`, in the assay filed under Homo sapiens [4], the Ratio IC50 was < 10.
On to `Cc1cc(COc2ccc(S(=O)(=O)C3(C(=O)NO)CCN(Cc4ccc(Cl)c(Cl)c4)CC3)cc2)c2ccccc2n1`, for which the concentration for half-maximal inhibition (IC50) is 65 nM in assay [1]; 145 nM in assay [2]; 80 nM at Collagenase 3; > 1000 nM with RAW264.7; > 50000 nM with Blood.
For the molecule `CCNC(=O)N1CCC(C(=O)NO)(S(=O)(=O)c2ccc(OCc3cc(C)nc4ccccc34)cc2)CC1`, the IC50 was 2 nM in assay [1]; 3610 nM in assay [2]; 835 nM at Collagenase 3; 240 nM in the assay with RAW264.7; 2500 nM with Blood. For the same molecule, the Ratio IC50 in the assay listed under Homo sapiens [3] and in the assay listed under Homo sapiens [4] was > 90 each time.
